Experimental data reported in patent US20240101531A1, “PYRIDINAMINE DERIVATIVES AND THEIR USE AS POTASSIUM CHANNEL MODULATORS” (Xenon Pharmaceuticals Inc., priority 2022, published 2024).
Structures can show the parent of a compound that is named as a salt.

What follows are molecules tested against human KV7.2/KV7.3 (Homo sapiens (Human), UniProt O43525+O43526) (assay: Potassium flux assay (IPG-2 AM dye)). Conditions: TREX HEK 293 or HEK 293 cells expressing human KV7.2/KV7.3; arithmetic mean values.
Type: cell-based
Outline: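 HEK 293 or TREX HEK 293 cells stably expressing human KV7.2/KV7.3 (tetracycline-induced where needed), loaded with IPG-2 AM, then compound for 20 min at room temperature. Flux triggered by K challenge buffer (10 mM KCl, pH 7.4), read at 530/558 nm; EC50 from 16-point 2-fold series from 30 μM, normalised to DMSO and reference modulator.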

Structure (SMILES) | EC50 [µM]
Cc1ncsc1C(=O)N[C@H]1CC[C@@H](Oc2ccc3c(Nc4ccc(Cl)nc4)nccc3c2)CC1 [Example 167, N-((1s,4s)-4-((1-((6-chloropyridin-3-yl)amino)isoquinolin-6-yl)oxy)cyclohexyl)-4-methylthiazole-5-carboxamide] | 1 to 10
Cc1ncc(Nc2nccc3cc(OC(C)c4cnn(C)c4)ccc23)cn1 (centres unmarked) [Example 169, 6-(1-(1-methyl-1H-pyrazol-4-yl)ethoxy)-N-(2-methylpyrimidin-5-yl)isoquinolin-1-amine] | 1 to 10
Cc1nn(C)cc1[C@@H](C)Oc1ccc2c(Nc3ccc(Cl)nc3)nccc2c1 [Example 174, (R)—N-(6-chloropyridin-3-yl)-6-(1-(1,3-dimethyl-1H-pyrazol-4-yl)ethoxy)isoquinolin-1-amine] | 1 to 10
Cc1nn(C)cc1[C@H](C)Oc1ccc2c(Nc3ccc(Cl)nc3)nccc2c1 [Example 175, (S)—N-(6-chloropyridin-3-yl)-6-(1-(1,3-dimethyl-1H-pyrazol-4-yl)ethoxy)isoquinolin-1-amine] | 1 to 10
CC(C)C(C)(N)COc1ccc2c(Nc3ccc(Cl)nc3)nccc2c1 (centres unmarked) [Example 176, 6-(2-amino-2,3-dimethylbutoxy)-N-(6-chloropyridin-3-yl)isoquinolin-1-amine hydrochloride] | 10 to 30
COC1(COc2ccc3c(Nc4ccc(Cl)nc4)nccc3c2)CC1 [Example 177, N-(6-chloropyridin-3-yl)-6-((1-methoxycyclopropyl)methoxy)isoquinolin-1-amine] | < 1
COC1(COc2ccc3c(Nc4cnc(C)nc4)nccc3c2)CC1 [Example 178, 6-((1-methoxycyclopropyl)methoxy)-N-(2-methylpyrimidin-5-yl)isoquinolin-1-amine] | 1 to 10
CC1(COc2ccc3c(Nc4ccc(Cl)nc4)nccc3c2)CC1 [Example 179, N-(6-chloropyridin-3-yl)-6-((1-methylcyclopropyl)methoxy)isoquinolin-1-amine] | 1 to 10

Other lines, results leading:

EC50 [µM] | Structure (SMILES)
< 1 | COc1nn(C)cc1COc1ccc2c(Nc3ccc(Cl)nc3)nccc2c1 [Example 166, N-(6-chloropyridin-3-yl)-6-((3-methoxy-1-methyl-1H-pyrazol-4-yl)methoxy)isoquinolin-1-amine]
1 to 10 | Clc1ccc(Nc2nccc3cc(OCCCCCn4cncn4)ccc23)cn1 [Example 168, 6-((5-(1H-1,2,4-triazol-1-yl)pentyl)oxy)-N-(6-chloropyridin-3-yl)isoquinolin-1-amine]
< 1 | C[C@@H](Oc1ccc2c(Nc3ccc(Cl)nc3)nccc2c1)c1cnn(C)c1 [Example 171, (R)—N-(6-chloropyridin-3-yl)-6-(1-(1-methyl-1H-pyrazol-4-yl)ethoxy)isoquinolin-1-amine]
< 1 | C[C@H](Oc1ccc2c(Nc3ccc(Cl)nc3)nccc2c1)c1cnn(C)c1 [Example 172, (S)—N-(6-chloropyridin-3-yl)-6-(1-(1-methyl-1H-pyrazol-4-yl)ethoxy)isoquinolin-1-amine]
10 to 30 | Clc1ccc(Nc2nccc3cc(OCCC4CC4)ccc23)cn1 [Example 180, N-(6-chloropyridin-3-yl)-6-(2-cyclopropylethoxy)isoquinolin-1-amine]
< 1 | FC1(COc2ccc3c(Nc4ccc(Cl)nc4)nccc3c2)CC1 [Example 181, N-(6-chloropyridin-3-yl)-6-((1-fluorocyclopropyl)methoxy)isoquinolin-1-amine]
< 1 | Clc1ccc(Nc2nccc3cc(OCc4cncnc4)ccc23)cn1 [Example 182, N-(6-chloropyridin-3-yl)-6-(pyrimidin-5-ylmethoxy)isoquinolin-1-amine]
1 to 10 | Clc1ccc(Nc2nccc3cc(OCCc4ccccn4)ccc23)cn1 [Example 183, N-(6-chloropyridin-3-yl)-6-(2-(pyridin-2-yl)ethoxy)isoquinolin-1-amine]
1 to 10 | FC(F)(F)OCCOc1ccc2c(Nc3ccc(Cl)nc3)nccc2c1 [Example 184, N-(6-chloropyridin-3-yl)-6-(2-(trifluoromethoxy)ethoxy)isoquinolin-1-amine]
